According to US10315996B2, “ROR gamma (RORγ) modulators” (LEAD PHARMA HOLDING B.V., priority 2015, dated 2019):

Target: T1, RORγ (Homo sapiens, UniProt P51449)
T1 construct: expressed in transfected cells; host or cells: 293FT cells (Invitrogen), expression vector pFN26A (Promega)
T1 sequence (P51449 269-508 limits assumed): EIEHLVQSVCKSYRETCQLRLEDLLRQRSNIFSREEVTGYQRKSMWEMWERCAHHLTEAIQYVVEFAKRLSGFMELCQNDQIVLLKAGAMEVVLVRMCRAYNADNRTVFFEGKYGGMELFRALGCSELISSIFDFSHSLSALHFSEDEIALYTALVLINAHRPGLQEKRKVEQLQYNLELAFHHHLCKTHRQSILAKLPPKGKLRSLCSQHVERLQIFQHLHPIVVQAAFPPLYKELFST
Assay: RORγ GAL4 reporter gene assay
Type: cell-based
Conditions: inhibition of RORγ activity, GAL4-RORγ-LBD luciferase reporter in 293FT cells, overnight incubation; read-out: mean pIC50 (converted)
Protocol: Example inhibitors 1-166 were tested for their ability to inhibit RORγ activity in a RORγ GAL4 reporter gene assay. The assay procedure and results are described below.
RORγ GAL4 Reporter Gene Assay Description
A GAL4 one-hybrid reporter system employing luciferase readout was established to determine inhibition of RORγ in 293FT cells. The RORγ ligand-binding domain (LBD) was fused to the yeast GAL4 DNA binding domain (DBD) and placed under the control of the human cytomegalovirus (CMV) immediate early promoter, using expression vector pFN26A (Promega) and standard recombinant DNA cloning methods. To serve as a control in the assay, a similar vector was generated in which the GAL4-DBD was fused to Herpes simplex virus protein 16 (VP16), a constitutive transcriptional activator.
To monitor the inhibitory effect of compounds on RORγ, a transcriptional reporter construct was used. The pGL4.35 vector (Promega) contains nine copies of the GAL4 Upstream Activator Sequence (UAS). This sequence drives the transcription of the luciferase reporter gene luc2P in response to binding of a fusion protein containing the GAL4 DNA binding domain, as for example expressed by the GAL4-RORγ-LBD and GAL4-VP16 expression vectors described above. To allow a GAL4 fusion protein to drive the expression of the luciferase reporter, the pGL4.35 expression vector and the appropriate GAL4 fusion protein expression vector were bulk transfected in the 293FT cells using standard transfection techniques.
The day after transfection, cells were plated into 96 well plates, test compound was added and the plates were incubated overnight. Subsequently, the firefly luciferase activity was quantified using luciferase detection reagent and luminescence readout.
Detailed Assay Description
293FT cells (Invitrogen) were transfected with a GAL4 fusion protein expression vector (as described above) and the transcriptional reporter construct (pGL4.35, Promega). 60 μL of TransIT-293 transfection reagent (Mirus Bio) was added drop wise to 1500 μl Opti-MEM I Reduced Serum Medium (Invitrogen) and incubated at room temperature (RT) for 5 to 20 minutes. 1500 μL of this reagent mixture was added to 5 μg of GAL4 fusion protein expression vector and 5 μg of the transcriptional reporter construct, and incubated at RT for 20 minutes.
To harvest 293FT cells from a T75 flask, first the culture medium was taken off the cells. Subsequently, the cells were washed with Phosphate Buffered Saline (PBS) (Lonza), after which the PBS was removed. To dissociate the cells, 1 ml of TrypLE Express (Invitrogen) was added to the flask, followed by incubation at RT until the cells visually started to detach. Cells were collected in 5 mL of assay medium (DMEM culture medium (Lonza), 10% dialyzed FBS (Invitrogen) and Pen/Strep (Lonza)) to achieve a single cell suspension. 10×10^6 cells were spun down and re-suspended in 10 mL of assay medium. Subsequently, the cell suspension was added to the transfection mix tube, and then transferred as a whole to a T75 flask (Greiner), followed by overnight (16-24 hours) incubation at 37° C. and 5% CO2.
For compound screening, the cells were harvested (as described above) and counted. 13×10^6 cells were spun down, the supernatant was aspirated and the cells were re-suspended in 17.3 mL of assay medium obtaining a cell suspension of 0.75×10^6 cells/mL. 80 μL of cell suspension (60,000 cells) was plated per well into a white, flat bottom, tissue culture treated, 96 well screening plates (Greiner).
Test compounds were diluted, starting from a 10 mM dimethylsulfoxide (DMSO) stock solution, to serial dilutions in DMSO at 500× the final test concentration. Subsequently, these solutions were diluted to 5× the final test concentration in two 10-fold-dilution steps in assay medium. The final DMSO concentration of the 5× test compound solution was 1%. […]

CN(Cc1ccco1)C(=O)c1ccc(NC(=O)Cc2ccc(S(=O)(=O)CC3CC3)cc2)cc1 [Example 59, 4-[2-(4-cyclopropylmethanesulfonylphenyl)acetamido]-N-(furan-2-ylmethyl)-N-methylbenzamide]
IC50: ≤ 100 nM

CC(C)(CN1CCOCC1)NC(=O)c1ccc(NC(=O)Cc2ccc(S(=O)(=O)CC3CC3)cc2)cc1 [Example 60, 4-[2-(4-cyclopropylmethanesulfonylphenyl)acetamido]-N-[2-methyl-1-(morpholin-4-yl)propan-2-yl]benzamide]
IC50: ≤ 1000 nM

C=CCN(CC=C)C(=O)c1ccc(NC(=O)Cc2ccc(S(=O)(=O)CC3CC3)cc2)cc1 [Example 61, 4-[2-(4-cyclopropylmethanesulfonylphenyl)acetamido]-N,N-bis(prop-2-en-1-yl)benzamide]
IC50: ≤ 100 nM

CC(C)CN(CC(C)C)C(=O)c1ccc(NC(=O)Cc2ccc(S(=O)(=O)NC3CC3)cc2)cc1 [Example 62, 4-{2-[4-(cyclopropylsulfamoyl)phenyl]acetamido}-N,N-bis(2-methylpropyl)benzamide]
IC50: ≤ 1000 nM

O=C(Cc1ccc(S(=O)(=O)CC2CC2)cc1)Nc1ccc(C(=O)N2CCCCc3ccccc32)cc1 [Example 63, 2-(4-cyclopropylmethanesulfonylphenyl)-N-[4-(2,3,4,5-tetrahydro-1H-1-benzazepine-1-carbonyl)phenyl]acetamide]
IC50: ≤ 10 nM

CCN(C(=O)c1ccc(NC(=O)Cc2ccc(S(=O)(=O)CC3CC3)cc2)cc1)c1nc(C)c(C)s1 [Example 64, 4-[2-(4-cyclopropylmethanesulfonylphenyl)acetamido]-N-(4-methyl-5-methyl-1,3-thiazol-2-yl)-N-ethylbenzamide]
IC50: ≤ 10 nM

CCCN(C(=O)c1ccc(NC(=O)Cc2ccc(S(=O)(=O)NC3CC3)cc2)cc1)c1cccnc1 [Example 65, 4-{2-[4-(cyclopropylsulfamoyl)phenyl]acetamido}-N-propyl-N-(pyridin-3-yl)benzamide]
IC50: ≤ 1000 nM

O=C(Cc1ccc(S(=O)(=O)NC2CC2)cc1)Nc1ccc(C(=O)N2CCCCC2c2ccccc2)cc1 (centres unmarked) [Example 66, 2-[4-(cyclopropylsulfamoyl)phenyl]-N-[4-(2-phenylpipendine-1-carbonyl)phenyl]acetamide]
IC50: ≤ 100 nM

CN(C(=O)c1ccc(NC(=O)Cc2ccc(S(=O)(=O)CC3CC3)cc2)cc1Cl)c1ccccn1 [Example 67, 2-chloro-4-[2-(4-cyclopropylmethanesulfonylphenyl)acetamido]-N-methyl-N-(pyridin-2-yl)benzamide]
IC50: ≤ 1000 nM

CC(C)(NC(=O)c1ccc(NC(=O)Cc2ccc(S(=O)(=O)CC3CC3)cc2)cc1)c1cccnc1 [Example 68, 4-[2-(4-cyclopropylmethanesulfonylphenyl)acetamido]-N-[2-(pyridin-3-yl)propan-2-yl]benzamide]
IC50: ≤ 1000 nM

CC(C)[C@@H](NC(=O)c1ccc(NC(=O)Cc2ccc(S(=O)(=O)CC3CC3)cc2)cc1)C(F)(F)F [Example 69, 4-[2-(4-cyclopropylmethanesulfonylphenyl)acetamido]-N-[(2R)-1,1,1-trifluoro-3-methylbutan-2-yl]benzamide]
IC50: ≤ 1000 nM

COc1ccccc1[C@H](C)NC(=O)c1ccc(NC(=O)Cc2ccc(S(=O)(=O)CC3CC3)cc2)cc1 [Example 70, 4-[2-(4-cyclopropylmethanesulfonylphenyl)acetamido]-N-[(1S)-1-(2-methoxyphenyl)ethyl]benzamide]
IC50: ≤ 1000 nM

N#CC(NC(=O)c1ccc(NC(=O)Cc2ccc(S(=O)(=O)CC3CC3)cc2)cc1)c1cccs1 (centres unmarked) [Example 72, N-[cyano(thiophen-2-yl)methyl]-4-[2-(4-cyclopropylmethanesulfonylphenyl)acetamido]benzamide]
IC50: ≤ 1000 nM

N#CC(NC(=O)c1ccc(NC(=O)Cc2ccc(S(=O)(=O)CC3CC3)cc2)cc1)c1ccccc1 (centres unmarked) [Example 73, N-[cyano(phenyl)methyl]-4-[2-(4-cyclopropylmethanesulfonylphenyl)acetamido]benzamide]
IC50: ≤ 1000 nM

O=C(Cc1ccc(S(=O)(=O)CC2CC2)cc1)Nc1ccc(C(=O)Nc2ccccc2OC(F)(F)F)cc1 [Example 74, 4-[2-(4-cyclopropylmethanesulfonylphenyl)acetamido]-N-[2-(trifluoromethoxy)phenyl]benzamide]
IC50: ≤ 100 nM

Cc1cccc(C)c1NC(=O)c1ccc(NC(=O)Cc2ccc(S(=O)(=O)CC3CC3)cc2)cc1 [Example 75, 4-[2-(4-cyclopropylmethanesulfonylphenyl)acetamido]-N-(2,6-dimethylphenyl) benzamide]
IC50: ≤ 100 nM

O=C(Cc1ccc(S(=O)(=O)CC2CC2)cc1)Nc1ccc(C(=O)N[C@H](c2ccc(Cl)cc2)C(F)(F)F)cc1 [Example 76, N-[(1R)-1-(4-chlorophenyl)-2,2,2-trifluoroethyl]-4-[2-(4-cyclopropylmethanesulfonylphenyl)acetamido]benzamide]
IC50: ≤ 1000 nM

COCCN(C(=O)c1ccc(NC(=O)Cc2ccc(S(=O)(=O)CC3CC3)cc2)cc1)C1CC1 [Example 79, N-cyclopropyl-4-[[2-[4-(cyclopropylmethylsulfonyl)phenyl]acetyl]amino]-N-(2-methoxyethyl)benzamide]
IC50: ≤ 1000 nM

CCCN(C(=O)c1ccc(NC(=O)Cc2ccc(S(=O)(=O)CC3CC3)cc2)cc1)c1ccsc1 [Example 81, 4-[2-(4-cyclopropylmethanesulfonylphenyl)acetamido]-N-propyl-N-(thiophen-3-yl)benzamide]
IC50: ≤ 10 nM

CCCCN(C(=O)c1ccc(NC(=O)Cc2ccc(S(=O)(=O)CC3CC3)cc2)cc1)c1nccs1 [Example 82, N-butyl-4-[2-(4-cyclopropylmethanesulfonylphenyl)acetamido]-N-(1,3-thiazol-2-yl)benzamide]
IC50: ≤ 100 nM

CCCN(C(=O)c1ccc(NC(=O)Cc2ccc(S(=O)(=O)CC3CC3)cc2)cc1)c1nccs1 [Example 83, 4-[2-(4-cyclopropylmethanesulfonylphenyl)acetamido]-N-propyl-N-(1,3-thiazol-2-yl)benzamide]
IC50: ≤ 10 nM

CCN(C(=O)c1ccc(NC(=O)Cc2ccc(S(=O)(=O)CC3CC3)cc2)cc1)c1nccs1 [Example 84, 4-[2-(4-cyclopropylmethanesulfonylphenyl)acetamido]-N-ethyl-N-(1,3-thiazol-2-yl)benzamide]
IC50: ≤ 100 nM

CN(C(=O)c1ccc(NC(=O)Cc2ccc(S(=O)(=O)CC3CC3)cc2)cc1)c1nccs1 [Example 85, 4-[2-(4-cyclopropylmethanesulfonylphenyl)acetamido]-N-methyl-N-(1,3-thiazol-2-yl)benzamide]
IC50: ≤ 1000 nM

CCCN(C(=O)c1ccc(NC(=O)Cc2ccc(S(=O)(=O)CC3CC3)cc2)cc1)c1cc(C)nn1C [Example 86, 4-[2-(4-cyclopropylmethanesulfonylphenyl)acetamido]-N-(1,3-dimethyl-1H-pyrazol-5-yl)-N-propylbenzamide]
IC50: ≤ 10 nM

CCCN(C(=O)c1ccc(NC(=O)Cc2ccc(S(=O)(=O)CC3CC3)cc2)cc1)c1cc(C)on1 [Example 87, 4-[2-(4-cyclopropylmethanesulfonylphenyl)acetamido]-N-(5-methyl-1,2-oxazol-3-yl)-N-propylbenzamide]
IC50: ≤ 10 nM

CCN(C(=O)c1ccc(NC(=O)Cc2ccc(S(=O)(=O)CC3CC3)cc2)cc1)c1cc(C)nn1C [Example 88, 4-[2-(4-cyclopropylmethanesulfonylphenyl)acetamido]-N-(1,3-dimethyl-1H-pyrazol-5-yl)-N-ethylbenzamide]
IC50: ≤ 10 nM
